Like-named read-outs stand apart in the source and are kept apart here.
What was measured:
human CB1 receptor [1] = target: T1, human CB1 receptor (Homo sapiens, UniProt P21554); test: Binding assay for CB1 agonists or inverse agonists ([3H]-CP-55,940 displacement, SK-N-MC membranes); conditions: for inhibition at 0.25 µM: read-out: CB1 receptor binding percent inhibition
T1 construct: expressed in transfected cells; host or cells: SK-N-MC cells, stably transfected with pcDNA3 CB-1 (human); semi-purified membrane pellet
Protocol: (§1) The human CB1 and CB2 receptors were stably expressed in SK-N-MC cells transfected with pcDNA3 CB-1 (human) or pcDNA3 CB-2 (human). The cells were grown in T-180 cell culture flasks under standard cell culture conditions at 37° C. in a 5% CO2 atmosphere. The cells were harvested by trysinization and homogenized in a homogenization buffer (10 mM Tris, 0.2 mM MgCl2, 5 mM KCl, with protease inhibitors aprotinin, leupeptin, pepstatin A and bacitracin) and centrifuged (2000 g). The supernatant was then centrifuged in 2M sucrose (31,300 g) to produce a semi-purified membrane pellet. The pellet was resuspended in homogenization and stored at −80° C.
(§2) On the day of the assay, the pellet was thawed on ice and diluted in assay buffer (50 mM Tris-HCl, 5 mM MgCl2, 2.5 mM EDTA, 0.5 mg/mL fatty acid free bovine serum albumin, pH 7.5). […] The plate was covered and incubated for 90 minutes at 30° C. The contents were then aspirated onto a Packard Unifilter GF/C filter bottom plate prewet with 0.5% polyethyleneimine. The wells of the polypropylene plate were rinsed and aspirated seven times with a 0.9% saline-0.5% Tween 20 solution. The Unifilter plate was dried, a scintillation cocktail was added to each well and the counts representing binding were quantitated in a TopCount scintillation counter.
(§3) For compounds tested, an IC50 binding value was obtained from percent inhibition studies in which various test concentrations were used. The binding value was calculated by linear regression.

human CB2 receptor = target: T2, human CB2 receptor (Homo sapiens, UniProt P34972); test: Binding assay for CB2 agonists or inverse agonists ([3H]-CP-55,940 displacement, SK-N-MC membranes); conditions: read-out: CB2 receptor binding percent inhibition
T2 construct: expressed in transfected cells; host or cells: SK-N-MC cells, stably transfected with pcDNA3 CB-2 (human); semi-purified membrane pellet
Protocol: as §1, §2, §3

human CB1 receptor [2] = target: T1, human CB1 receptor; test: Functional cell-based assay, CB1 receptor mediated change in CRE β-gal expression (adenylate cyclase activity); conditions: for CB1 Receptor Functional Activity (change in functional activity): one compound concentration, vehicle treated cell = 100%
Excerpt: The CB1 and CB2 receptors are G-protein coupled receptors (GPCR), which influence cell function via the Gi-protein. These receptors modulate the activity of intracellular adenylate cyclase, which in turn produces the intracellular signal messenger cyclic-AMP (cAMP).
At baseline, or during non-ligand bound conditions, these receptors are constitutively active and tonically suppress adenylate cyclase activity. The binding of an agonist causes further receptor activation and produces additional suppression of adenylate cyclase activity. The binding of an inverse agonist inhibits the constitutive activity of the receptors and results in an increase in adenylate cyclase activity.
Test compounds were evaluated in SK-N-MC cells which, using standard transfection procedures, were stably transfected with human cDNA for pcDNA3-CRE β-gal and pcDNA3 CB1 receptor (human) or pcDNA3 CB2 receptor (human). By expressing CRE β-gal, the cells produced β-galactosidase in response to CRE promoter activation by cAMP. Cells expressing CRE β-gal and either the human CB1 or CB2 receptor will produce less β-galactosidase when treated with a CB1/CB2 agonist and will produce more β-galactosidase when treated with a CB1/CB2 inverse agonist.
The cells were grown in 96-well plates under standard cell culture conditions at 37° C. in a 5% CO2 atmosphere. After 3 days, the media was removed and a test compound in media (wherein the media was supplemented with 2 mM L-glutamine, […] sodium pyruvate, 0.1% low fatty acid FBS (fetal bovine serum) and antibiotics) was added to the cell. The plates were incubated for 30 minutes at 37° C. and the plate cells were then treated with forskolin over a 4-6 hour period, then washed and lysed. The β-galactosidase activity was quantitated using commercially available kit reagents (Promega Corp. Madison, Wis.) and a Vmax Plate Reader (Molecular Devices, Inc).
The change in β-galactosidase activity was determined by setting a vehicle treated cell's activity value at 100% and expressing the β-galactosidase activity measured in a corresponding compound treated cell as a percent of the vehicle treated cell activity.
The EC50 value for functional activity for compounds tested was calculated by linear regression and was obtained from studies in which varying compound concentrations were used.
Where an EC50 value was not obtained for a test compound, the value shown (in %) represents change in functional activity and was obtained from a study in which one compound concentration was used.

[3] = test concentration 0.25 μM (footnote 3)
[4] = CB1 Receptor Functional Inverse Agonist EC50, SK-N-MC cells, CRE β-gal, forskolin

T2 sequence (P34972 whole entry): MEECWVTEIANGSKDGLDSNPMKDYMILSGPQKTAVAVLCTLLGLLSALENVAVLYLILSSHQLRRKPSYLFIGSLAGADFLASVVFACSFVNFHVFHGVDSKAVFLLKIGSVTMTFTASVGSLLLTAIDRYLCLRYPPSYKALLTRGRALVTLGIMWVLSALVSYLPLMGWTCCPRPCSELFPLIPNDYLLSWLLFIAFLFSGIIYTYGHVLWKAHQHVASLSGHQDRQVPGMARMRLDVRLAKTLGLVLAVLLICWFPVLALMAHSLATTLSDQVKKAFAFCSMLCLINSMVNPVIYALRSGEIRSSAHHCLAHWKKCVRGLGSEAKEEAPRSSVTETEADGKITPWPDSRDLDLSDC
T1 sequence (P21554 whole entry): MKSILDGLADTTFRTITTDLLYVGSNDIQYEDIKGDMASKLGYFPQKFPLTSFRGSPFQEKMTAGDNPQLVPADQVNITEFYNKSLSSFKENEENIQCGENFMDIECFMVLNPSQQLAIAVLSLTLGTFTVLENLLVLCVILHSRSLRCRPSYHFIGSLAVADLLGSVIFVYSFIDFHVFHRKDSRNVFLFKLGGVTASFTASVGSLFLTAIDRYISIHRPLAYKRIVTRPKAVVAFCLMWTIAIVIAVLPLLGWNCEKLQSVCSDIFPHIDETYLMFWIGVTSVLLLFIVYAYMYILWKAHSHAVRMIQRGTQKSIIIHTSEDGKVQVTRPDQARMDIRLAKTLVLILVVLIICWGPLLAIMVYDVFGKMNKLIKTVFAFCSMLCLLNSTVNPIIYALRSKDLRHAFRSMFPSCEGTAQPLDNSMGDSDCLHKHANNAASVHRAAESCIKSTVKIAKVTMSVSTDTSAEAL

In the case of `C[C@@H](NS(=O)(=O)/C=C/c1nn(-c2ccc(F)cc2F)c2c1CCC2Cc1cccc(F)c1)C1CCCCC1` (stereo partly drawn) [Cpd 5, (2E)-2-[1-(2,4-difluoro-phenyl)-6-(3-fluoro-benzyl)-1,4,5,6-tetrahydro-cyclopentapyrazol-3-yl]-ethenesulfonic acid [(1R)-1-cyclohexyl-ethyl]-amide], the inhibition at 0.25 µM (human CB1 receptor [1]; [3]) is reported as 44%, the inhibition at 0.25 µM (human CB2 receptor; [3]) is reported as 4% and the EC50 (human CB1 receptor [2]; [4]) is reported as 200 nM.
For `O=C(NN1CCCCC1)c1nn(-c2ccc(F)cc2F)c2c1CCC2Cc1cccc(F)c1` (stereo not shown) [Cpd 6, 1-(2,4-difluoro-phenyl)-6-(3-fluoro-benzyl)-1,4,5,6-tetrahydro-cyclopentapyrazole-3-carboxylic acid piperidin-1-ylamide], the inhibition at 0.25 µM (human CB1 receptor [1]; [3]) was 4%, the inhibition at 0.25 µM (human CB2 receptor; [3]) was 12% and the EC50 (human CB1 receptor [2]) was 200 nM.
In the case of `O=C(c1nn(-c2ccc(F)cc2F)c2c1CCC2Cc1cccc(F)c1)N1CCCCC1` (stereo not shown) [Cpd 8, [1-(2,4-difluoro-phenyl)-6-(3-fluoro-benzyl)-1,4,5,6-tetrahydro-cyclopentapyrazol-3-yl]-piperidin-1-yl-methanone], the inhibition at 0.25 µM (human CB1 receptor [1]; [3]) is reported as 6%, the inhibition at 0.25 µM (human CB2 receptor; [3]) is reported as 0% and the “CB1 Receptor Functional Activity (change in functional activity)” value (human CB1 receptor [2]) is reported as 21%.
`CCOC(=O)[C@H]1C2CCC(C2)[C@H]1NC(=O)c1nn(-c2ccc(F)cc2F)c2c1CCC2Cc1cccc(F)c1` (stereo partly drawn) [Cpd 13, (2S,3R)-3-{[1-(2,4-difluoro-phenyl)-6-(3-fluoro-benzyl)-1,4,5,6-tetrahydro-cyclopentapyrazole-3-carbonyl]-amino}-bicyclo[2.2.1]heptane-2-carboxylic acid ethyl ester] was tested, and the inhibition at 0.25 µM (human CB1 receptor [1]; [3]) was 58%, the inhibition at 0.25 µM (human CB2 receptor; [3]) was 44% and the “CB1 Receptor Functional Activity (change in functional activity)” value (human CB1 receptor [2]) was 24%.
In the case of `COC(=O)[C@@H](Cc1ccc(F)cc1)NC(=O)c1nn(-c2ccc(F)cc2F)c2c1CCC2Cc1cccc(F)c1` (stereo partly drawn) [Cpd 14, (2R)-2-{[1-(2,4-difluoro-phenyl)-6-(3-fluoro-benzyl)-1,4,5,6-tetrahydro-cyclopentapyrazole-3-carbonyl]-amino}-3-(4-fluoro-phenyl)-propionic acid methyl ester], the inhibition at 0.25 µM (human CB1 receptor [1]; [3]) is reported as 50%, the inhibition at 0.25 µM (human CB2 receptor; [3]) is reported as 30% and the “CB1 Receptor Functional Activity (change in functional activity)” value (human CB1 receptor [2]) is reported as 48%.
In the case of `COC(=O)[C@@H](Cc1ccc(O)cc1)NC(=O)c1nn(-c2ccc(F)cc2F)c2c1CCC2Cc1cccc(F)c1` (stereo partly drawn) [Cpd 15, (2R)-2-{[1-(2,4-difluoro-phenyl)-6-(3-fluoro-benzyl)-1,4,5,6-tetrahydro-cyclopentapyrazole-3-carbonyl]-amino}-3-(4-hydroxy-phenyl)-propionic acid methyl ester], the inhibition at 0.25 µM (human CB1 receptor [1]; [3]) is reported as 54%, the inhibition at 0.25 µM (human CB2 receptor; [3]) is reported as 50% and the “CB1 Receptor Functional Activity (change in functional activity)” value (human CB1 receptor [2]) is reported as −15%.
For `O=C(NCc1ccccc1)c1nn(-c2ccc(F)cc2F)c2c1CCC2Cc1cccc(F)c1` (stereo not shown) [Cpd 16, 1-(2,4-difluoro-phenyl)-6-(3-fluoro-benzyl)-1,4,5,6-tetrahydro-cyclopentapyrazole-3-carboxylic acid benzylamide], the inhibition at 0.25 µM (human CB1 receptor [1]) was 26%, the inhibition at 0.25 µM (human CB2 receptor; [3]) was 0% and the EC50 (human CB1 receptor [2]; [4]) was 400 nM.
`C[C@H](NC(=O)c1nn(-c2ccc(F)cc2F)c2c1CCC2Cc1cccc(F)c1)c1ccccc1` (stereo partly drawn) [Cpd 18, 1-(2,4-difluoro-phenyl)-6-(3-fluoro-benzyl)-1,4,5,6-tetrahydro-cyclopentapyrazole-3-carboxylic acid [(1S)-1-phenyl-ethyl]-amide] showed an inhibition at 0.25 µM (human CB1 receptor [1]; [3]) of 66%, an inhibition at 0.25 µM (human CB2 receptor; [3]) of 19% and an EC50 (human CB1 receptor [2]) of 10000 nM.
`C[C@@H](NC(=O)c1nn(-c2ccc(F)cc2F)c2c1CCC2Cc1cccc(F)c1)c1ccccc1` (stereo partly drawn) [Cpd 19, 1-(2,4-difluoro-phenyl)-6-(3-fluoro-benzyl)-1,4,5,6-tetrahydro-cyclopentapyrazole-3-carboxylic acid [(1R)-1-phenyl-ethyl]-amide] gave an inhibition at 0.25 µM (human CB1 receptor [1]; [3]) of 52%, an inhibition at 0.25 µM (human CB2 receptor; [3]) of 26% and an EC50 (human CB1 receptor [2]) of 200 nM.
With `C[C@H](NC(=O)c1nn(-c2ccc(F)cc2F)c2c1CCC2Cc1cccc(F)c1)C1CCCCC1` (stereo partly drawn) [Cpd 20, 1-(2,4-difluoro-phenyl)-6-(3-fluoro-benzyl)-1,4,5,6-tetrahydro-cyclopentapyrazole-3-carboxylic acid [(1S)-1-cyclohexyl-ethyl]-amide] the inhibition at 0.25 µM (human CB1 receptor [1]) was 70%, the inhibition at 0.25 µM (human CB2 receptor) was 44% and the “CB1 Receptor Functional Activity (change in functional activity)” value (human CB1 receptor [2]) was 37%.
`C[C@@H](NC(=O)c1nn(-c2ccc(F)cc2F)c2c1CCC2Cc1cccc(F)c1)C1CCCCC1` (stereo partly drawn) [Cpd 21, 1-(2,4-difluoro-phenyl)-6-(3-fluoro-benzyl)-1,4,5,6-tetrahydro-cyclopentapyrazole-3-carboxylic acid [(1R)-1-cyclohexyl-ethyl]-amide] was tested, and the IC50 (human CB1 receptor [1]) was 80 nM, the inhibition at 0.25 µM (human CB1 receptor [1]) was 67% and the inhibition at 0.25 µM (human CB2 receptor) was 61%. It also gave an EC50 (human CB1 receptor [2]; [4]) of 40 nM.
